Experimental findings from patent US7674801B2 (AstraZeneca AB, priority 2006, dated 2010) are described below.

Sequence of S. aureus (SAU) GyrB ATPase (P0A0K8 whole entry): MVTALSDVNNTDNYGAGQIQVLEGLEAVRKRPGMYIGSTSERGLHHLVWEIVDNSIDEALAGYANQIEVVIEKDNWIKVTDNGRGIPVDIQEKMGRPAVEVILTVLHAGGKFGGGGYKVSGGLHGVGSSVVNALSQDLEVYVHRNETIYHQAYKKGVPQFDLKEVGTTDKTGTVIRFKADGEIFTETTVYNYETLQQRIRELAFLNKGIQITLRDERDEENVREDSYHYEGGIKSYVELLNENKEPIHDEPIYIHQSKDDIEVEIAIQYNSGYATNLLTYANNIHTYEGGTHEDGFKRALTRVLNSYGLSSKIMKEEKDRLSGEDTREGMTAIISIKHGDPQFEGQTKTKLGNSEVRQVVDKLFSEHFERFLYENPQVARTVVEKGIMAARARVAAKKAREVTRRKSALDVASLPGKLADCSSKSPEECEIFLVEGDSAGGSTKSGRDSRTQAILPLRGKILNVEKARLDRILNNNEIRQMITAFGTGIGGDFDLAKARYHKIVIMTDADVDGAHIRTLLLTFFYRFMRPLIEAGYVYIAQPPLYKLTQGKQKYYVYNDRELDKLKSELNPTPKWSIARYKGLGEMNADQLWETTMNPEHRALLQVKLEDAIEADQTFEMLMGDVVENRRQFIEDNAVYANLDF
Sequence of S. aureus (SAU) GyrB ATPase (P0AES4 whole entry, further chain): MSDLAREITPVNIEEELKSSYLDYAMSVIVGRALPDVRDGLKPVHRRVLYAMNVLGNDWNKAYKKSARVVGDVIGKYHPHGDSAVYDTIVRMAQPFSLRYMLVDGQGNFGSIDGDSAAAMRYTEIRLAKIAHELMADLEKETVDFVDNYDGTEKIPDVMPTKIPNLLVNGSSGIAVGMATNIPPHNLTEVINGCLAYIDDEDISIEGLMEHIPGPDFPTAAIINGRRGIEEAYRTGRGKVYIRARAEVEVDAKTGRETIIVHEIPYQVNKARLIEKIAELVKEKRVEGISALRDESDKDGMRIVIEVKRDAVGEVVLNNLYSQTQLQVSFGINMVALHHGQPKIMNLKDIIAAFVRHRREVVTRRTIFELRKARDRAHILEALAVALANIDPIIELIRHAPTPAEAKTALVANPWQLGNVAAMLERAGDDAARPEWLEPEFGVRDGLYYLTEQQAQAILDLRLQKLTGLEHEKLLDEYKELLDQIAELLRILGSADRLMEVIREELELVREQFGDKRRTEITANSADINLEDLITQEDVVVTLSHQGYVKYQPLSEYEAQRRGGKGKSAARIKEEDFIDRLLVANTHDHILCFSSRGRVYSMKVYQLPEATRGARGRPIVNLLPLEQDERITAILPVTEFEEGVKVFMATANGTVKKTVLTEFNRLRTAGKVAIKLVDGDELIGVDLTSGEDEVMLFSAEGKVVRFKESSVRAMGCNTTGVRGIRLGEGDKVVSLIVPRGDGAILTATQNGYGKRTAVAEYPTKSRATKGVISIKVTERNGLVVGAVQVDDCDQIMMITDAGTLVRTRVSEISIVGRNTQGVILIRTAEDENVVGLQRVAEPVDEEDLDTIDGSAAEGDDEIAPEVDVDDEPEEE

For the first experiment, the target named is S. aureus (SAU) GyrB ATPase (Staphylococcus aureus, UniProt P0A0K8). As to the kind of experiment: S. aureus GyrB ATPase inhibition, ammonium molybdate/malachite green phosphate detection assay. As to conditions: 10 compound concentrations; 500 μM ATP. Type of experiment: biochemical. As for the experimental part:
Compounds were tested for inhibition of GyrB ATPase activity using an ammonium molybdate/malachite green-based phosphate detection assay (Lanzetta, P. A., L. J. Alvarez, P. S. Reinach, and O. A. Candia, 1979, 100: 95-97). Assays were performed in multiwell plates in 100 μl reactions containing: 50 mM Hepes buffer pH 7.5, 75 mM ammonium acetate, 8.0 mM magnesium chloride, 1.0 mM ethylenediaminetetraacetic acid, 5% glycerol, 2 mM 1,4-Dithio-DL-threitol, 400 nM bovine serum albumin, 5 μg/ml sheared salmon sperm DNA, 1.25 nM E. coli GyrA, 1.25 nM S. aureus GyrB, 500 μM ATP, and compound in dimethylsulfoxide. Reactions were quenched with 150 μl of ammonium molybdate/malachite green detection reagent containing 1.2 mM malachite green hydrochloride, 8.5 mM ammonium molybdate tetrahydrate, and 1 M hydrochloric acid. Plates were read in an absorbance plate reader at 650 nm and percent inhibition values were calculated using dimethylsulfoxide (2%)-containing reactions as 0% inhibition and novobiocin-containing (2 μM) reactions as 100% inhibition controls. Compound potency was based on IC50 measurements determined from reactions performed in the presence of 10 different compound concentrations.
On to `CCCCNC(=O)c1nc(-c2ccc(NC(=O)NCC)nc2)sc1C(=O)NOC` [Example 36, N^4-Butyl-2-(6-{[(ethylamino)carbonyl]amino}pyridin-3-yl)-N^5-methoxy-1,3-thiazole-4,5-dicarboxamide], for which inhibition was half-maximal at 16.8 nM (IC50). The same measure, in the same setting: then `CCNC(=O)Nc1ccc(-c2cncc(C(=O)O)c2)cn1` [Example 19, 6′-{[(Ethylamino)carbonyl]amino}-3,3′-bipyridine-5-carboxylic acid], with 846 nM.

Still in this experiment, the particulars now being: compound concentration 5 μM (values marked *).
With `CCNC(=O)Nc1cccc(-c2ccc(C(=O)OCC)cc2)n1` [Example 16, Ethyl 4-(6-{[(ethylamino)carbonyl]amino}pyridin-2-yl)benzoate], the inhibition at 5 µM was determined as 1.28%.

The same experiment, now with this note: compound concentration 12.5 μM; 12.5 µM.
For `CCNC(=O)Nc1ccc(-c2nc(-c3ncnn3C)c(C(=O)O)s2)cn1` [Example 147, 2-(6-{[(ethylamino)carbonyl]amino}pyridin-3-yl)-4-(1-methyl-1H-1,2,4-triazol-5-yl)-1,3-thiazole-5-carboxylic acid], the “S. aureus (SAU) GyrB ATPase % Inhibition” value is 94.65%.

The same experiment, now with this note: read-out: S. aureus (SAU) GyrB ATPase % Inhibition, compound concentration 12.5 μM.
Turning to `CCNC(=O)Nc1cc(-c2nc(C(C)(C)C)cs2)c(-c2cncc(C(=O)NC)c2)cn1` [Example 164, 4′-(4-tert-butyl-1,3-thiazol-2-yl)-6′-{[(ethylamino)carbonyl]amino}-N-methyl-3,3′-bipyridine-5-carboxamide], the inhibition at 12.5 µM stood at 88.1%.

Take `CCCCNC(=O)c1nc(-c2ccc(NC(=O)NCC)nc2)sc1C(=O)NOC` [Example 36, N^4-Butyl-2-(6-{[(ethylamino)carbonyl]amino}pyridin-3-yl)-N^5-methoxy-1,3-thiazole-4,5-dicarboxamide]: the inhibition at 12.5 µM was 4.84%.

Turning to `CCNC(=O)Nc1ccc(-c2nc(C(=O)NC)c(C(N)=O)s2)cn1` [Example 115, 2-(6-{[(Ethylamino)carbonyl]amino}pyridin-3-yl)-N^4-methyl-1,3-thiazole-4,5-dicarboxamide], the inhibition at 12.5 µM is 99.2%.

For `CCNC(=O)Nc1cc(-c2cccnc2)c(-c2cncc(C(=O)O)c2)cn1` [Example 103, 6′-{[(Ethylamino)carbonyl]amino}-3,3′:4′,3″-terpyridine-5-carboxylic acid], the inhibition at 12.5 µM is 96%.

On to `CCNC(=O)Nc1ccc(-c2nc(C(=O)N(C)C)c(C(=O)OCC)s2)cn1` [Example 140, ethyl 4-[(dimethylamino)carbonyl]-2-(6-{[(ethylamino)carbonyl]amino}pyridin-3-yl)-1,3-thiazole-5-carboxylate], for which the inhibition at 12.5 µM amounted to 76.6%. On the same count and under the same terms, for `CCNC(=O)Nc1cccc(-c2cccc(C(=O)O)c2)n1` [Example 31, 3-(6-{[(Ethylamino)carbonyl]amino}pyridin-2-yl)benzoic acid] the value was 100%; for `CNC(=O)c1cncc(-c2cnc(NC(=O)NC(C)C)cc2-c2nc(C(F)(F)F)cs2)c1` [Example 129, 6′-{[(Isopropylamino)carbonyl]amino}-N-methyl-4′-[4-(trifluoromethyl)-1,3-thiazol-2-yl]-3,3′-bipyridine-5-carboxamide], 100%. For the compound `CCNC(=O)Nc1ccc(-c2nc(C(=O)NC)c(C(=O)OC(C)C)s2)cn1` [Example 8, Isopropyl 2-(6-{[(ethylamino)carbonyl]amino}pyridin-3-yl)-4-[(methylamino)carbonyl]-1,3-thiazole-5-carboxylate], the inhibition at 12.5 µM was determined as 81.5%. Same read-out and setting: then `CCNC(=O)Nc1ccc(-c2nc(-c3ncnn3C)c(C(=O)N(C)C)s2)cn1` [Example 113, 2-(6-{[(Ethylamino)carbonyl]amino}pyridin-3-yl)-N,N-dimethyl-4-(1-methyl-1H-1,2,4-triazol-5-yl)-1,3-thiazole-5-carboxamide], with 102%. On the same count and under the same terms, then `CCNC(=O)Nc1cc(-c2cccnc2)c(-c2cncc(C(=O)OCC)c2)cn1` [Example 85, Ethyl 6′-{[(ethylamino)carbonyl]amino}-3,3′:4′,3″-terpyridine-5-carboxylate], with 94.9%; and `CCNC(=O)Nc1ccc(-c2nc(-c3nccn3CCOC)c(C(=O)O)s2)cn1` [Example 89, 2-(6-{[(ethylamino)carbonyl]amino}pyridin-3-yl)-4-[1-(2-methoxyethyl)-1H-imidazol-2-yl]-1,3-thiazole-5-carboxylic acid], with 86.1%.

As to `CCNC(=O)Nc1cc(-c2nc(C(F)(F)F)cs2)c(-c2ncc(C(=O)NC)s2)cn1` [Example 127, 2-{6-{[(Ethylamino)carbonyl]amino}-4-[4-(trifluoromethyl)-1,3-thiazol-2-yl]pyridin-3-yl}-N-methyl-1,3-thiazole-5-carboxamide], the inhibition at 12.5 µM came to 97%.

For the compound `CCNC(=O)Nc1cc(-c2nc(C(F)(F)F)cs2)c(-c2ncc(C(=O)O)s2)cn1` [Example 102, 2-{6-{[(Ethylamino)carbonyl]amino}-4-[4-(trifluoromethyl)-1,3-thiazol-2-yl]pyridin-3-yl}-1,3-thiazole-5-carboxylic acid], the inhibition at 12.5 µM came to 98.2%. Still for that read-out and setting: for `CCCCNC(=O)c1nc(-c2ccc(NC(=O)NCC)nc2)sc1C(=O)OCC` [Example 10, Ethyl 4-[(butylamino)carbonyl]-2-(6-{[(ethylamino)carbonyl]amino}pyridin-3-yl)-1,3-thiazole-5-carboxylate] the value was 92.6%; for `CCCCNC(=O)c1nc(-c2ccc(NC(=O)NCC)nc2)sc1C(=O)N(C)C` [Example 109, N^4-Butyl-2-(6-{[(ethylamino)carbonyl]amino}pyridin-3-yl)-N^5,N^5-dimethyl-1,3-thiazole-4,5-dicarboxamide], 99.5%.

Consider `CCNC(=O)Nc1ccc(-c2nc(-c3ncnn3C)c(C(=O)OC)s2)cn1` [Example 72, Methyl 2-(6-{[(ethylamino)carbonyl]amino}pyridin-3-yl)-4-(1-methyl-1H-1,2,4-triazol-5-yl)-1,3-thiazole-5-carboxylate], for which the inhibition at 12.5 µM came out at 80.3%. On the same count and under the same terms, then `CCNC(=O)Nc1cccc(-c2cccc(C(=O)OCC)c2)n1` [Example 15, Ethyl 3-(6-{[(ethylamino)carbonyl]amino}pyridin-2-yl)benzoate], with 97.9%; and `CCNC(=O)Nc1ccc(-c2cncc(C(=O)O)c2)cn1` [Example 19, 6′-{[(Ethylamino)carbonyl]amino}-3,3′-bipyridine-5-carboxylic acid], with 95.1%; and `CCNC(=O)Nc1ccc(-c2nc3cccc(C(N)=O)c3s2)cn1` [Example 40, 2-(6-{[(Ethylamino)carbonyl]amino}pyridin-3-yl)-1,3-benzothiazole-7-carboxamide], with 83.7%. On the same count and under the same terms, for `CCNC(=O)Nc1ccc(-c2nc(C(=O)NC)c(C(=O)O)s2)cn1` [Example 24, 2-(6-{[(Ethylamino)carbonyl]amino}pyridin-3-yl)-4-[(methylamino)carbonyl]-1,3-thiazole-5-carboxylic acid] the value was 99.1%. Consider `CCNC(=O)Nc1ccc(-c2ccc(C(=O)O)cc2)cn1` [Example 23, 4-(6-{[(Ethylamino)carbonyl]amino}pyridin-3-yl)benzoic acid], for which the inhibition at 12.5 µM stood at 92.5%.

Take `CCNC(=O)Nc1cc(-c2nc(C(F)(F)F)cs2)c(-c2cncc(C(=O)NC)c2)cn1` [Example 122, 6′-{[(Ethylamino)carbonyl]amino}-N-methyl-4′-[4-(trifluoromethyl)-1,3-thiazol-2-yl]-3,3′-bipyridine-5-carboxamide]: the inhibition at 12.5 µM came out at 85.8%. Still for that read-out and setting: then `CCNC(=O)Nc1ccc(-c2nc(C(=O)NCCOC)c(C(N)=O)s2)cn1` [Example 116, 2-(6-{[(Ethylamino)carbonyl]amino}pyridin-3-yl)-N^4-(2-methoxyethyl)-1,3-thiazole-4,5-dicarboxamide], with 98.7%; and `CCNC(=O)Nc1ccc(-c2cccc(CC(=O)O)c2)cn1` [Example 146, [3-(6-{[(ethylamino)carbonyl]amino}pyridin-3-yl)phenyl]acetic acid], with 64.3%. Same read-out and setting: then `CCNC(=O)Nc1cc(-c2ccc(F)nc2)c(-c2cncc(C(N)=O)c2)cn1` [Example 128, 6′-{[(Ethylamino)carbonyl]amino}-6″-fluoro-3,3′:4′,3″-terpyridine-5-carboxamide], with 91.5%; and `CCNC(=O)Nc1nc(-c2ccc(C(=O)O)cc2)cs1` [Example 33, 4-(2-{[(Ethylamino)carbonyl]amino}-1,3-thiazol-4-yl)benzoic acid], with 38.2%. `CCNC(=O)Nc1ccc(-c2nc(C(=O)NC3CC3)c(C(N)=O)s2)cn1` [Example 38, N^4-Cyclopropyl-2-(6-{[(ethylamino)carbonyl]amino}pyridin-3-yl)-1,3-thiazole-4,5-dicarboxamide]: the inhibition at 12.5 µM is 91.8%. For the compound `CCNC(=O)Nc1ncc(-c2cccc(C(=O)O)c2)cn1` [Example 29, 3-(2-{[(Ethylamino)carbonyl]amino}pyrimidin-5-yl)benzoic acid], the inhibition at 12.5 µM came out at 13.6%. On the same count and under the same terms, for `CCNC(=O)Nc1ccc(-c2nc(C(=O)N(C)C)c(C(=O)NC3CCCC3)s2)cn1` [Example 58, 2-[6-(3-Ethyl-ureido)-pyridin-3-yl]-thiazole-4,5-dicarboxylic acid 5-yclopentylamide 4-dimethylamide] the value was 89.3%. On the same count and under the same terms, for `CCNC(=O)Nc1cc(-c2nc(C(F)(F)F)cs2)c(-c2cncc(C(=O)NC(C)(C)C)c2)cn1` [Example 123, N-(tert-Butyl)-6′-{[(ethylamino)carbonyl]amino}-4′-[4-(trifluoromethyl)-1,3-thiazol-2-yl]-3,3′-bipyridine-5-carboxamide] the value was 96.2%; for `CCNC(=O)Nc1cc(-c2nc(CC)cs2)c(-c2cccc(C(=O)O)c2)cn1` [Example 100, 3-[6-{[(Ethylamino)carbonyl]amino}-4-(4-ethyl-1,3-thiazol-2-yl)pyridin-3-yl]benzoic acid], 99.7%.

What is called IC50 is the midpoint of a concentration-inhibition curve. Low values mean inhibition by little substance, high ones a need for much substance.
